# In ChEMBL document CHEMBL1145536, “Low-oxygen-recovery assay for high-throughput screening of compounds against nonreplicating Mycobacterium tuberculosis” (2007):
# Assays:
# Assay type in all cases: functional
# [1] = tested on: Mycobacterium tuberculosis; experiment: Antimicrobial activity against non replicating persistence Mycobacterium tuberculosis H37Rv in aerobic condition assessed as bacterial density after 7 days; details: 168 h
# [2] = tested on: Mycobacterium tuberculosis; experiment: Antimicrobial activity against non replicating persistence Mycobacterium tuberculosis H37Rv in aerobic condition assessed by relative light units after 7 days; details: 168 h
# [3] = tested on: Mycobacterium tuberculosis; experiment: Antimicrobial activity against non replicating persistence Mycobacterium tuberculosis H37Rv in anaerobic condition assessed as bacterial density after 10 days; details: 240 h
# [4] = tested on: Mycobacterium tuberculosis; experiment: Antimicrobial activity against non replicating persistence Mycobacterium tuberculosis H37Rv in anaerobic condition assessed as relative light unit after 11 days by LORA assay; details: 264 h
SMILES,MIC [1] [µM],MIC [2] [µM],MIC [3] [µM],MIC [4] [µM]
CC[C@H]1OC(=O)[C@H](C)[C@@H](O[C@H]2C[C@@](C)(OC)[C@@H](O)[C@H](C)O2)[C@H](C)[C@@H](O[C@@H]2O[C@H](C)C[C@H](N(C)C)[C@H]2O)[C@](C)(OC)C[C@@H](C)C(=O)[C@H](C)[C@@H]2N(NCCCc3ccnc4ccccc34)C(=O)O[C@@]21C,1.8,0.8,1.3,2.7
"CCC[C@@H]1C[C@@H](C(=O)N[C@H](C(C)Cl)[C@H]2O[C@H](SC)[C@H](O)[C@@H](O)[C@H]2O)N(C)C1 (single isomer, unassigned) [CLINDAMYCIN]",> 128,> 128,> 128,> 128
CN[C@@H]1[C@H](O[C@H]2[C@H](O[C@H]3[C@H](O)[C@@H](O)[C@H](N=C(N)N)[C@@H](O)[C@@H]3N=C(N)N)O[C@@H](C)[C@]2(O)C=O)O[C@@H](CO)[C@H](O)[C@H]1O (stereo in doubt) [STREPTOMYCIN],≤ 0.5,0.5,0.8,1.2
NCC[C@H](O)C(=O)N[C@@H]1C[C@H](N)[C@@H](O[C@H]2O[C@H](CN)[C@@H](O)[C@H](O)[C@H]2O)[C@H](O)[C@H]1O[C@H]1O[C@H](CO)[C@@H](O)[C@H](N)[C@H]1O [AMIKACIN],≤ 0.5,0.5,≤ 0.5,≤ 0.5
Nc1ccc(C(=O)O)c(O)c1 [AMINOSALICYLIC ACID],12.3,12.3,> 128,> 128
CC(=O)Nc1ccc(/C=N/NC(N)=S)cc1 [AMITHIOZONE],31.3,14.6,70.4,> 128
O=C(O)c1cn(C2CC2)c2cc(N3CCNCC3)c(F)cc2c1=O [CIPROFLOXACIN],≤ 0.5,1.5,33,> 128
CC[C@H]1OC(=O)[C@H](C)[C@@H](O[C@H]2C[C@@](C)(OC)[C@@H](O)[C@H](C)O2)[C@H](C)[C@@H](O[C@@H]2O[C@H](C)C[C@H](N(C)C)[C@H]2O)[C@](C)(OC)C[C@@H](C)C(=O)[C@H](C)[C@@H](O)[C@]1(C)O [CLARITHROMYCIN],1.6,13.4,18.7,> 128
CC(C)/N=c1\cc2n(-c3ccc(Cl)cc3)c3ccccc3nc-2cc1Nc1ccc(Cl)cc1 [CLOFAZIMINE],0.7,≤ 0.5,0.8,1.5
N[C@@H]1CONC1=O [CYCLOSERINE],60.5,63.7,125,> 128
CC[C@@H](CO)NCCN[C@@H](CC)CO [ETHAMBUTOL],1,1.8,> 128,> 128
O=C1OCCN1/N=C/c1ccc([N+](=O)[O-])o1 [FURAZOLIDONE],1,77.4,44.8,9.7
CC(=O)O[C@H]1C[C@@]2(C)[C@@H](C[C@@H](O)[C@H]3[C@@]4(C)CC[C@@H](O)[C@@H](C)[C@@H]4CC[C@@]32C)/C1=C(\CCC=C(C)C)C(=O)O [FUSIDIC ACID],7,15.8,7.2,57.7
NNC(=O)c1ccncc1 [ISONIAZID],≤ 0.5,≤ 0.5,> 128,> 128
CC(=O)N1CCN(c2ccc(OC[C@H]3CO[C@](Cn4ccnc4)(c4ccc(Cl)cc4Cl)O3)cc2)CC1 [KETOCONAZOLE],7.6,13.9,53.3,53
CCC[C@@H]1C[C@@H](C(=O)N[C@@H]([C@H]2O[C@H](SC)[C@H](O)[C@@H](O)[C@H]2O)[C@@H](C)O)N(C)C1 [LINCOMYCIN],104,> 128,> 128,> 128
CC(=O)NC[C@H]1CN(c2ccc(N3CCOCC3)c(F)c2)C(=O)O1 [LINEZOLID],1.9,6.3,> 128,65.2
Cc1ncc([N+](=O)[O-])n1CCO [METRONIDAZOLE],> 128,> 128,40,> 128
CN(C)c1ccc(O)c2c1C[C@H]1C[C@H]3[C@H](N(C)C)C(O)=C(C(N)=O)C(=O)[C@@]3(O)C(O)=C1C2=O [MINOCYCLINE],7.2,7.1,38.4,53.5
COc1c(N2C[C@@H]3CCCN[C@@H]3C2)c(F)cc2c(=O)c(C(=O)O)cn(C3CC3)c12 [MOXIFLOXACIN],≤ 0.5,0.5,≤ 0.5,15.9
O=C(Nc1ccc([N+](=O)[O-])cc1Cl)c1cc(Cl)ccc1O [NICLOSAMIDE],≤ 0.5,≤ 0.5,0.9,≤ 0.5
O=C1CN(/N=C/c2ccc([N+](=O)[O-])o2)C(=O)N1 [NITROFURANTOIN],0.9,> 128,32,63.9
CC1COc2c(N3CCN(C)CC3)c(F)cc3c(=O)c(C(=O)O)cn1c23 (stereo not given) [OFLOXACIN],0.7,2.3,24.2,> 128
O=[N+]([O-])c1cn2c(n1)OC[C@@H](OCc1ccc(OC(F)(F)F)cc1)C2 [PRETOMANID],0.7,0.6,12,3.1
NC(=O)c1cnccn1 [PYRAZINAMIDE],> 128,> 128,96,> 128
CO[C@H]1/C=C/O[C@@]2(C)Oc3c(C)c(O)c4c(c3C2=O)C2=NC3(CCN(CC(C)C)CC3)NC2=C(NC(=O)/C(C)=C\C=C\[C@H](C)[C@H](O)[C@@H](C)[C@@H](O)[C@@H](C)[C@H](OC(C)=O)[C@@H]1C)C4=O [RIFABUTIN],≤ 0.5,0.5,≤ 0.5,≤ 0.5
CO[C@H]1/C=C/O[C@@]2(C)Oc3c(C)c(O)c4c(O)c(c(/C=N/N5CCN(C)CC5)c(O)c4c3C2=O)NC(=O)/C(C)=C\C=C\[C@H](C)[C@H](O)[C@@H](C)[C@@H](O)[C@@H](C)[C@H](OC(C)=O)[C@@H]1C [RIFAMPIN],≤ 0.5,0.5,≤ 0.5,1.8
C[C@]1(Cn2ccnn2)[C@H](C(=O)O)N2C(=O)C[C@H]2S1(=O)=O [TAZOBACTAM],> 128,> 128,> 128,> 128
COc1cc(Cc2cnc(N)nc2N)cc(OC)c1OC [TRIMETHOPRIM],> 128,> 128,83.2,> 128
CN[C@H](CC(C)C)C(=O)N[C@H]1C(=O)N[C@@H](CC(N)=O)C(=O)N[C@H]2C(=O)N[C@H]3C(=O)N[C@H](C(=O)N[C@H](C(=O)O)c4cc(O)cc(O)c4-c4cc3ccc4O)[C@H](O)c3ccc(c(Cl)c3)Oc3cc2cc(c3O[C@@H]2O[C@H](CO)[C@@H](O)[C@H](O)[C@H]2O[C@H]2C[C@](C)(N)[C@H](O)[C@H](C)O2)Oc2ccc(cc2Cl)[C@H]1O [VANCOMYCIN],15.5,> 128,128,> 128
